Source: PMC4786809, “Determination of cyanidin 3-glucoside in rat brain, liver and kidneys by UPLC/MS-MS and its application to a short-term pharmacokinetic study” (Scientific Reports, 2016)
“And” between values parts separate entries of the source, which are not always exact repeats. Equal entries are not always repeated. Where two headings read alike, the source gives them in different places.

Tests used:
[1] = Brain concentrations and tissue pharmacokinetics after intravenous C3G; assay type: in vivo, Wistar rats
From the text: (§1) Twenty-two male Wistar rats (Rattus Norvegicus, Harlan Italy S.r.l.), of same age (15 weeks), 293–390 g of body weight, were used. The rats were randomly divided into 5 groups, according to the time that elapsed after intravenous administration of the test compound, and one control group. Each time point was represented by four biological replicates. All animals were allowed to acclimate to the animal facility of the University of Trieste for at least 2 week before studies were initiated. The experimental design was vetted and approved by the bioethical committee of the University of Trieste (internal code 140PAS14), according to the provisions of the European Community Council Directive 2010/63/EU[39]. The methods were carried out in accordance with the approved guidelines. The animals (n = 22) were maintained in cages in a room at 23 ± 2 °C, 50–60% humidity with a 12-hour light-dark cycle. The night before the experiment, food was withdrawn from the cages but water was given ad libitum. On the day of the experiment, the rats were anesthetized with intra-peritoneal administration of tiletamine/zolazepam (1:1, 25 mg/kg body weight) and xylazine (10 mg/kg body weight). During anaesthesia (10 min in all cases), the heart and ventilation rate were monitored. The rats were placed on their backs, with the ventral side up and with the legs spread separately on a thermo-isolated support. The penis was extruded by sliding the prepuce downwards. The dorsal penis vein was then seen along both sides of the penis and exactly 10 min after anaesthesia 0.2 mL PBS without (control group) or with (treated group) 668 nmol cyanidin 3-glucoside (C3G) in PBS was injected using a 24-G hypodermic needle. Then the injection site was pressed with a swab for a few seconds, and the glans was encouraged to retract to prevent further bleeding. One min before sacrificing the rats, sodium heparin (0.1 ml, 500 IU) was injected again into the dorsal penis vein, exposed in the same way. […] Blood draining and excision of the organs were carried out according to the literature. In detail, blood was collected from the neck of rats hold upside down, immediately after their decapitation, which happened at the time points sharp. Exsanguination took 5 seconds; laparotomy and excision of the liver and the kidneys took 5 more seconds. The post-decapitation procedures were standardised. Urine was collected through the urinary bladder with a syringe before decapitation. Kidneys, liver and brain were washed with mQ water, immediately frozen in liquid nitrogen and stored at −80 °C.
(§2) Immediately after sampling, 5 mL of blood were transferred into ice-cold (−20 °C), deoxygenated aqueous 95% methanol in a ratio 1:9 (v/v). The urine was weighted and transferred into ice-cold, deoxygenated aqueous 95% methanol at a ratio of 1:9 (w/v). Frozen kidneys, liver and brain were grounded under cryogenic conditions (−196 °C) to 5 μm particles in a CryoMill (Retsch, Germany), using a single 25 mm i. d. steel ball (30 seconds, 25/sec frequency). The pulverized tissue was rapidly transferred (without thawing) into ice-cold, deoxygenated aqueous 95% methanol at a ratio of 1:9 (w/v). Cinnamic acid-d5, as internal standard, was dissolved in the aqueous methanol at concentration of 0.1 mg/L for the monitoring of the extraction protocol in biofluids and tissues.
(§3) All samples were extracted with an orbital shaker for 10 min at room temperature. The methanol extracts were then centrifuged for 5 min at 3600 rpm at 4 °C, decanted under a stream of nitrogen in 50 mL dark glass vessels and stored at −80 °C. Clean-up of extracted samples in methanol was performed by solid phase extraction (SPE), as previously described. Briefly, 5 mL of extracted samples were evaporated on a rotary evaporator and reconstituted in 10 mL of acidified water. Anthocyanins were extracted by solid-phase adsorption onto a hydrophobic matrix (Sep-Pak C18, 0.35 g, Waters, Milford, MA). […]

[2] = Plasma concentrations and pharmacokinetics after intravenous bolus of C3G (NCA and two-compartment model); assay type: in vivo, Wistar rats; settings: for C0: read-out: C0 (back-extrapolated concentration)
From the text: as §1, §2, §3

[3] = system: endothelial cell membrane; design: method as in PMID 22387282; settings: cited from earlier work
[4] = Liver concentrations and tissue pharmacokinetics after intravenous C3G; assay type: in vivo, Wistar rats
From the text: as §1, §2, §3

[5] = Kidney concentrations and tissue pharmacokinetics after intravenous C3G; assay type: in vivo, Wistar rats
From the text: as §1, §2, §3

[6] = male, Wistar, rat, plasma, iv, 668 nmol, non-compartmental analysis
[7] = male, Wistar, rat, plasma, iv, 668 nmol, two-compartment model analysis
[8] = 0.25 min after i.v. 668 nmol C3G, mean ± SEM n=4

In the case of OC[C@H]1O[C@@H](Oc2cc3c(O)cc(O)cc3[o+]c2-c2ccc(O)c(O)c2)[C@H](O)[C@@H](O)[C@@H]1O [C3G, Cyanidin-3-O-β-glucoside], the “Mean concentration in brain” value ([1]; 0.25 min after i.v. 668 nmol C3G, mean ± SEM n=4, corrected for residual blood) is reported as 40.46 ± 9.67 pmol/g, the “Mean concentration in brain” value ([1]; 2 min after i.v. 668 nmol C3G) is reported as 7.48 ± 0.79 pmol/g and the “Mean concentration in brain” value ([1]; 5 min after i.v. 668 nmol C3G) is reported as 7.05 ± 0.55 pmol/g. For the same molecule, the “Mean concentration in brain” value ([1]; 15 min after i.v. 668 nmol C3G) was 2.18 ± 0.58 pmol/g, the “Mean concentration in brain” value ([1]; 20 min after i.v. 668 nmol C3G) was 2.21 ± 0.44 pmol/g and the “MTTB (Mean Transit Time in the brain)” value ([1]; brain) was 0.43 min. For the same molecule, the AUC0-t ([1]; brain, i.v. 668 nmol C3G) was 119.9 pmol·min/g and 119.89 pmol·min/g, the half-life ([1]; male, Wistar, rat, brain, iv, 668 nmol) was 8.8 min and the concentration at 15 sec ([1]; male, Wistar, rat, brain, iv, 668 nmol, 15 sec after i.v., read-out: Corresponding brain concentration assuming free diffusion in a water compartment) was ~50 nM. The “Plasma concentration range with linear plasma/brain correlation” value ([2]; 0.25–20 min) was 19 to 355 nM and 18.78 to 354.84 nM, the “Time after which half of the compound had been cleared from the plasma” value ([2]; distribution phase) was 18 s and the “Time window needed to describe complete elimination” value ([2]; estimate) was “no more than 1 hour”. For the same molecule, the k el ([2]; male, Wistar, rat, iv, non-compartmental analysis, plasma, i.v. 668 nmol, read-out: λz (first order terminal elimination rate constant) (converted)) was 0.00167 s⁻¹, the AUC0-t ([2]; male, Wistar, rat, iv, plasma, i.v. 668 nmol C3G, read-out: AUC0–20 (converted)) was 0.0194 µM·h and the time to complete elimination ([2]; male, Wistar, rat, plasma, intravenous, 668 nmol, estimate, read-out: Time for complete elimination (5–6 half-lives)) was 40 to 50 min. The C0 ([2]; male, Wistar, rat, plasma, intravenous, 668 nmol, non-compartmental analysis) was 429 nM, the half-life ([2]; male, Wistar, rat, plasma, intravenous, 668 nmol, plasma, read-out: Mean half-life) was < 8 min and the C0 ([2]; male, Wistar, rat, plasma, intravenous, 668 nmol, two-compartment model analysis) was 550 nM. It also gave an MRT ([2]; male, Wistar, rat, plasma, intravenous, 668 nmol, two-compartment model analysis, read-out: MRT (converted)) of 9.21 min, an MRT ([2]; male, Wistar, rat, plasma, intravenous, 668 nmol, two-compartment model analysis, read-out: MRTP (mean residence time in the peripheral space) (converted)) of 6.68 min and an AUC(0-inf) [2, 6] of 0.0225 µM·h. It also gave a Cmax [2, 6] of 355 nM, a Tmax [2, 6] of 0.25 min and a C0 [2, 6] of 429 nM. The clearance ([2]; male, Wistar, rat, plasma, iv, 668 nmol, non-compartmental analysis, read-out: CL (total body clearance)) was 490 mL/min, the MRT ([2]; male, Wistar, rat, plasma, iv, 668 nmol, non-compartmental analysis, read-out: MRT (converted)) was 8.72 min and the Vd ([2]; male, Wistar, rat, plasma, iv, 668 nmol, non-compartmental analysis, read-out: Vss) was 4.31 L. It also gave a Vd ([2]; male, Wistar, rat, plasma, iv, 668 nmol, non-compartmental analysis, read-out: Vz) of 4.92 L, a half-life ([2]; male, Wistar, rat, plasma, iv, 668 nmol, non-compartmental analysis, read-out: t1/2 (terminal elimination half-life)) of 6.9 min and a half-life ([2]; male, Wistar, rat, plasma, iv, 668 nmol, plasma, i.v. 668 nmol C3G, read-out: Half life) of 6.9 min. The AUC(0-inf) [2, 7] was 0.0222 µM·h, the C0 [2, 7] was 550 nM and the MRT ([2]; male, Wistar, rat, plasma, iv, 668 nmol, two-compartment model analysis, read-out: MRT (converted)) was 9.22 min. For the same molecule, the Vd ([2]; male, Wistar, rat, plasma, iv, 668 nmol, two-compartment model analysis, read-out: Vss) was 4.58 L, the half-life ([2]; male, Wistar, rat, plasma, iv, 668 nmol, two-compartment model analysis, read-out: t1/2e (elimination half-life)) was 7.41 min and the half-life ([2]; male, Wistar, rat, plasma, iv, 668 nmol, two-compartment model analysis, read-out: t1/2d (distribution half-life)) was 0.3 min. The concentration at 0.25 min ([2]; male, Wistar, rat, plasma, iv, 0.25 min after i.v. 668 nmol C3G, mean ± SEM n=4) was 355 ± 54.2 nM, the concentration at 2 min ([2]; male, Wistar, rat, plasma, iv, 2 min after i.v. 668 nmol C3G, mean ± SEM n=4) was 93.8 ± 9.01 nM and the concentration at 5 min ([2]; male, Wistar, rat, plasma, iv, 5 min after i.v. 668 nmol C3G, mean ± SEM n=4) was 72.2 ± 5.47 nM. It also gave a concentration at 15 min ([2]; male, Wistar, rat, plasma, iv, 15 min after i.v. 668 nmol C3G, mean ± SEM n=4) of 17.5 ± 2.04 nM, a concentration at 20 min ([2]; male, Wistar, rat, plasma, iv, 20 min after i.v. 668 nmol C3G, mean ± SEM n=4) of 18.8 ± 4.06 nM and an AUMC ([2]; non-compartmental analysis) of 11789.96 nM*min^2. The “Residual amount eliminated per min” value ([2]; per min) was “ca. 10%”, the “Time for distribution to go to 50% completion” value ([2]; rat, in vivo) was “ca. 8 s” and the “Fraction distributed beyond plasma at distribution equilibrium” value ([2]; steady state) was 99.76%. For the same molecule, the “Fraction present in plasma at distribution equilibrium” value ([2]; steady state) was 0.24%, the “Share of MRT spent in the peripheral space” value ([2]; two-compartment model) was 73.51% and the AUMC ([2]; two-compartment model analysis) was 12394.67 nM*min^2. The “CL (total body clearance)” value ([2]; two-compartment model analysis) was 0.49 L/min, the “FAUC (AUC peripheral bioavailability, MRTP/MRTC)” value ([2]; two-compartment model analysis) was 2.77 and the “IC (number of circulations, MRTP/MTTP)” value ([2]; two-compartment model analysis) was 3.55. For the same molecule, the “MTT (mean transit time; MTTC, mean duration of one visit in central compartment)” value ([2]; two-compartment model analysis) was 0.54 min, the “MTTp (mean transit time in the peripheral space)” value ([2]; two-compartment model analysis) was 1.91 min and the “V1 (volume of central compartment)” value ([2]; two-compartment model analysis) was 1.21 L. The “V2 (volume of peripheral compartment)” value ([2]; two-compartment model analysis) was 3.36 L, the “a (T0 intercept of distribution kinetics)” value ([2]; two-compartment model analysis) was 442.79 nM and the “b (T0 intercept of elimination phase)” value ([2]; two-compartment model analysis) was 107.68 nM. For the same molecule, the k10 ([2]; two-compartment model analysis) was 0.41 min^–1, the k12 ([2]; two-compartment model analysis) was 1.45 min^–1 and the k21 ([2]; two-compartment model analysis) was 0.52 min^–1. The “α (slope factor)” value ([2]; two-compartment model analysis) was 2.29 min^–1, the “β (slope factor)” value ([2]; two-compartment model analysis) was 0.09 min^–1 and the “Time frame to pass the endothelial cell membrane” value [3] was < 1 min. The “Mean concentration in liver” value [4, 8] was 56.61 ± 11.79 pmol/g, the “Mean concentration in liver” value ([4]; 2 min after i.v. 668 nmol C3G) was 19.22 ± 1.99 pmol/g and the “Mean concentration in liver” value ([4]; 5 min after i.v. 668 nmol C3G) was 20.91 ± 2.61 pmol/g. The “Mean concentration in liver” value ([4]; 15 min after i.v. 668 nmol C3G) was 11.02 ± 2.24 pmol/g, the “Mean concentration in liver” value ([4]; 20 min after i.v. 668 nmol C3G) was 5.54 ± 0.33 pmol/g and the “MTTL (Mean Transit Time in the liver)” value ([4]; liver) was 1.43 min. For the same molecule, the AUC0-t ([4]; liver, i.v. 668 nmol C3G) was 345.3 pmol·min/g and 345.29 pmol·min/g, the half-life ([4]; male, Wistar, rat, liver, iv, 668 nmol, read-out: Half-life) was 8.15 min and the “Amounts found in kidneys (range over sampling times)” value ([5]; 0.25–20 min after i.v. 668 nmol C3G) was 0.44 to 1.69 nmol/g. The “Mean concentration in kidneys” value [5, 8] was 1.69 ± 0.47 nmol/g, the “Mean concentration in kidneys” value ([5]; 2 min after i.v. 668 nmol C3G) was 1.40 ± 0.16 nmol/g and the “Mean concentration in kidneys” value ([5]; 5 min after i.v. 668 nmol C3G) was 0.58 ± 0.08 nmol/g. For the same molecule, the “Mean concentration in kidneys” value ([5]; 15 min after i.v. 668 nmol C3G) was 0.57 ± 0.17 nmol/g, the “Mean concentration in kidneys” value ([5]; 20 min after i.v. 668 nmol C3G) was 0.44 ± 0.04 nmol/g and the “MTTK (Mean Transit time in kidneys)” value ([5]; kidneys) was 8.54 min. The AUC0-t ([5]; kidneys, i.v. 668 nmol C3G) was 14.3 nmol·min/g and 14.32 nmol·min/g and the half-life ([5]; male, Wistar, rat, kidney, iv, 668 nmol, kidneys) was 11.7 min.
